Test results: patent US5141947A, “Fibrinolysis-enhancing agents” (Mitsubishi Kasei Corporation, priority 1984, dated 1992)

Columns and labels:
[1] = tested on: fibrinolysis of plasma by t-PA (tissue plasminogen activator); assay: fibrinolysis of plasma aggregation effected by t-PA; 0.15 ml plasma in 0.7 ml total (Examples 2 and 3); type: biochemical, healthy person (human)
Experimental: (§1) One part by volume of 3.8% sodium citrate solution was added to 9 parts by volume of the venous blood of a healthy person and centrifuged at 3,000 rpm for 15 minutes to collect the plasma.
(§2) There was placed 0.6 ml of the plasma into a spectrophotometric microcell having a path length of 10 mm and a path width of 2 mm. After adding 0.015 ml of physiological saline containing the compound (Ia) in various concentrations, the cell was held in the cell holder of a spectrophotometer, Hitachi 220 A, which was maintained at 37° C. and incubated for 5 minutes. Into the cell, there was added 0.025 ml of a solution of 8.0 μg/ml t-PA (tissue plasminogen activator) or 3,000 international units per ml high molecular weight UK, urokinase manufactured by The Green Cross Corporation, and […] CaCl2 solution. Changes in the absorbance at 608 nm were recorded at 37° C. every one minute. Thus, the coagulation and fibrinolysis of the plasma were measured with the time lapse.
(§3) The coagulation time is defined as a time period from the time 0 at which CaCl2 solution is added to a coagulation initiation time at which the absorbance has increased to a value larger by 0.025 than the value at the time 0: i.e., delta A is 0.025. The dissolution time is defined as a time period from the coagulation initiation time to a fibrinolysis termination time at which the absorbance has decreased to a value 10% that of the maximum value.
(§4) The procedures of Example 1 were repeated except that a less amount cf plasma was used. Thus, in the same manner as Example 1, there was collected 0.15 ml of plasma to which 0.1 ml of physiological saline containing the compound (Ia) in various concentrations was added, the total volume was adjusted to 0.375 ml, the resulting mixture was incubated at 37° C. for 5 minutes, 0.025 ml of a solution of 1.6 μg/ml t-PA or 500 international units per ml high molecular weight UK and 0.3 ml of 0.025M CaCl2 solution were added, and the coagulation and fibrinolysis of the plasma were measured with the time lapse to determine the coagulation time and dissolution time.
Activities of arginine derivatives having the thrombin-inhibiting effect and the structural formula shown below on the fibrinolysis by t-PA were estimated in the same manner as Example 2.

[2] = acute toxicity, LD50, intravenous, male mice; details: mouse, in vivo, male mice weighing 20 g
Experimental: The arginine derivative of the formula (Ia) above was prepared in accordance with Example 2 described in the European Patent Application Publication No. 8746.

[3] = tested on: fibrinolysis of plasma by UK (urokinase); assay: fibrinolysis of plasma aggregation effected by UK; 0.6 ml plasma in 0.7 ml total (Example 1); type: biochemical, healthy person (human); details: for Coagulation Time / Dissolution Time: n=5, average ± S.E.M.
Experimental: as §1, §2
(§5) In the FIGURE, the ordinate represents the difference of absorbance (ΔA) at 608 nm and the abscissa represents the time in minutes.
(§6) The effects of the compound (Ia) on the dissolution time and the coagulation time were measured on the plasma from five healthy persons. […] Values in Tables are expressed in the average+S.E.M.
as §3

[4] = tested on: fibrinolysis of plasma by t-PA (tissue plasminogen activator); assay: fibrinolysis of plasma aggregation effected by t-PA; 0.6 ml plasma in 0.7 ml total (Example 1); type: biochemical, healthy person (human); details: for Coagulation Time / Dissolution Time: n=5, average ± S.E.M.
Experimental: as §1, §2, §5, §6, §3

[5] = tested on: fibrinolysis of plasma by UK (urokinase); assay: fibrinolysis of plasma aggregation effected by UK; 0.15 ml plasma in 0.7 ml total (Example 2); type: biochemical, healthy person (human)
Experimental: as §1, §2, §3, §4

[6] = tested on: thrombus in carotid artery of rabbit; assay: in vivo thrombolysis by t-PA, rabbit carotid artery thrombus (Example 4); details: Compound (Ia) 1.2 mg/kg alone
Experimental: The carotid artery of a rabbit was exposed from the surrounding tissue under anesthesia by pentobarbital. The exposed artery was surrounded with absorbent cotton soaked with glacial acetic acid and allowed to stay for 3 hours to form thrombus by the damage done to the endorthelium. The thus formed thrombus was tested for dissolution. Immediately after removing out the cotton, physiological saline in which the substance to be tested had been dissolved was injected through the femoral vein. The infusion was continued over 2 hours. After the infusion, the arterial segment wherein the thrombus had been formed was cut out and the thrombus mass was removed out under a microscope. The thrombus was dissolved in alkali and the protein was quantitatively measured by phenol method.

[7] = Table 5, 0.3 μM, control 2.9 min
[8] = Table 5, 0.3 μM, control 95.7 min

Compound: COc1ccc2ccc(S(=O)(=O)N[C@@H](CCCNC(=N)N)C(=O)N3CCC(C)CC3C(=O)O)cc2c1 (stereo partly shown) [Compound 2]
- Coagulation Time [1, 7]: 4.1 min
- Dissolution Time [1, 8]: 36.5 min

Compound: COCCN(CC(=O)O)C(=O)[C@H](CCCNC(=N)N)NS(=O)(=O)c1ccc2cc(OC)c(OC)cc2c1 [Compound 1]
- Coagulation Time [1, 7]: 3.2 min
- Dissolution Time [1, 8]: 55.4 min

Compound: CC1CNc2c(cccc2S(=O)(=O)N[C@@H](CCCNC(=N)N)C(=O)N2CC[C@@H](C)C[C@@H]2C(=O)O)C1 (stereo partly drawn) [Compound (Ia), (2R, 4R)-1-[N^2-(3-methyl-1,2,3,4-tetrahydro-8-quinolinesulfonyl)-L-arginyl]-4-methyl-2-piperidinecarboxylic acid]
- LD50 [2]: 211 mg/kg
- dissolution time, in comparison with no addition ([3]; 0.1 μM or 0.3 μM): significantly reduced
- Coagulation Time ([3]; 0.1 μM): 8.8 ± 1.1 min
- Dissolution Time ([3]; 0.1 μM): 28.2 ± 5.2 min
- Coagulation Time ([3]; 0.3 μM): 10.2 ± 1.4 min
- Dissolution Time ([3]; 0.3 μM): 24.6 ± 4.3 min
- dissolution time, in comparison with no addition ([4]; 0.1 μM or 0.3 μM): significantly reduced
- Coagulation Time ([4]; 0.1 μM): 10.6 ± 2.0 min
- Dissolution Time ([4]; 0.1 μM): 33.0 ± 2.0 min
- Coagulation Time ([4]; 0.3 μM): 13.8 ± 2.8 min
- Dissolution Time ([4]; 0.3 μM): 32.0 ± 2.8 min
- Coagulation Time ([5]; 0.01 μM): prolonged slightly
- Coagulation Time ([5]; 0.01 μM, n=5): 4.9 ± 0.6 min
- Dissolution Time ([5]; 0.01 μM, n=5): 63.8 ± 11.8 min
- Coagulation Time ([5]; 0.03 μM, n=5): 5.5 ± 0.4 min
- Dissolution Time ([5]; 0.03 μM, n=5): 35.9 ± 5.7 min
- Coagulation Time ([5]; 0.1 μM, n=5): 7.4 ± 0.8 min
- Dissolution Time ([5]; 0.1 μM, n=5): 23.4 ± 2.2 min
- dissolution time decreased to fraction of the time without addition ([5]; 0.3 μM): about 1/4
- Coagulation Time ([5]; 0.3 μM, n=5): 9.9 ± 0.8 min
- Dissolution Time ([5]; 0.3 μM, n=5): 22.5 ± 1.3 min
- fibrinolysis ([5]; as low as 0.01 μM): enhanced
- Coagulation Time ([1]; 0.01 μM): prolonged slightly
- Coagulation Time ([1]; 0.01 μM, n=5): 4.5 ± 0.2 min
- Dissolution Time ([1]; 0.01 μM, n=5): 64.1 ± 10.2 min
- Coagulation Time ([1]; 0.03 μM, n=5): 5.0 ± 0.2 min
- Dissolution Time ([1]; 0.03 μM, n=5): 51.6 ± 7.7 min
- Coagulation Time ([1]; 0.1 μM, n=5): 6.7 ± 0.3 min
- Dissolution Time ([1]; 0.1 μM, n=5): 34.5 ± 5.2 min
- dissolution time decreased to fraction of the time without addition ([1]; 0.3 μM): about 1/3
- Coagulation Time ([1]; 0.3 μM, n=5): 9.0 ± 0.3 min
- Dissolution Time ([1]; 0.3 μM, n=5): 26.6 ± 2.4 min
- fibrinolysis ([1]; as low as 0.01 μM): enhanced
- thrombolytic effect [6]: no thrombolytic effect
- Thrombus Protein ([6]; 2 h infusion, femoral vein, n=4, saline control 1.97 ± 0.38): 2.03 ± 0.55 mg

Compound: CCC1CCN(C(=O)[C@H](CCCNC(=N)N)NS(=O)(=O)c2ccc3cc(OC)c(OC)cc3c2)C(C(=O)O)C1 (stereo partly shown) [Compound 3]
- Coagulation Time [1, 7]: 3.2 min
- Dissolution Time [1, 8]: 53.4 min

Compound: Cc1ccc2ccc(S(=O)(=O)N[C@@H](CCCNC(=N)N)C(=O)N3CCC(C)CC3C(=O)O)cc2c1 (stereo partly shown) [Compound 4]
- Coagulation Time [1, 7]: 3.1 min
- Dissolution Time [1, 8]: 50.5 min
